Results from paper PMC7848139, “Novel Hybrid CHC from β-carboline and N-Hydroxyacrylamide Overcomes Drug-Resistant Hepatocellular Carcinoma by Promoting Apoptosis, DNA Damage, and Cell Cycle Arrest” (Frontiers in Pharmacology, 2021).

What was measured:
LO2 cells = experiment: MTT assay on normal liver LO2 cells; format: cell-based, human; conditions: increasing dosages, 72 h
Method: Human cancer cell lines (SMMC-7721, Bel7402, Huh7, HCT116), drug-resistant cell lines (Bel7402/5-FU), and human normal hepatocyte cells (LO2) were purchased from Institute of Cell Biology (Shanghai, China).
Briefly, appropriate cells (1 × 10^4 cells/mL) were placed into 96-well plates in 100 μL of DMEM medium overnight. Then adding 100 μL of evaluated compounds into individual well for 72 h while 0.1% DMSO aqueous solution was treated as the negative control. After incubation with 30 μl MTT (5 mg/mL) for 4 h in all well, and ELISA plate reader measured absorbance of each well at 570 nm. Then calculating cytotoxicity effect of evaluated compounds through the formula: Cell inhibitory percentage (%) = (1−OD of treatment group/OD of control) × 100%. GraphPadPrism (4.03) calculated data to afford Corresponding IC50 values.
FIGURE 3 Inhibition potency of CHC against the proliferation on Bel7402, Bel7402/5-FU, and LO2 cells. Cells were treated with CHC at the indicated concentrations for 72 h. MTT assays were performed to evaluate cell proliferation. The inhibition (%) rate (mean ± SD) were from three separate experiments.

recombinant human HDAC8 = target: T1, recombinant human HDAC8 (Homo sapiens, UniProt Q9BY41); experiment: HDAC fluorimetric assay, HDAC8; format: biochemical; conditions: mean ± SD of three experiments
T1 construct: purchased Enzo Life Sciences Inc
T1 sequence (Q9BY41 1-377): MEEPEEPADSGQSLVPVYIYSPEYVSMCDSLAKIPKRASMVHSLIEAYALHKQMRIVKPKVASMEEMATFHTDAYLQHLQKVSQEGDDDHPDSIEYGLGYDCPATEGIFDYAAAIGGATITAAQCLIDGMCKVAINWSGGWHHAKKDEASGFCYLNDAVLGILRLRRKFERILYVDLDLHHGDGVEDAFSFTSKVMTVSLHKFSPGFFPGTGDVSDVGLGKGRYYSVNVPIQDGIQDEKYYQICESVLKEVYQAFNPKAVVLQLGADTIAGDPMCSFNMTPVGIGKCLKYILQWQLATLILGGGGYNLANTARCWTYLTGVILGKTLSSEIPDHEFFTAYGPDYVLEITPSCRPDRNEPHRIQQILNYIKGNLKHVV
Method: (§1) The assay was conducted according to the HDAC1/3/6/8 assay kit (Enzo Life Sciences Inc.). Each different concentrations of evaluated compounds were, respectively, incubated with each HDAC1/3/6/8 at coupling of corresponding HDAC substrate (Boc-Lys (Ac)-AMC) at 37°C for 60 min. Then stopping the reaction under adding lysine developer.

[1] = test system: cyclin B and CDK1 in Bel7402/5-FU cells; experiment: Western blotting of cyclin B and CDK1; format: cell-based, human; conditions: 2.0 and 5.0 μM, 72 h, immunoblotting
Method: (§2) The HDAC, autophagy and apoptosis-related proteins were analyzed according to Western blotting assay. […]. And anti-Ac-histone H3, anti-Ac-histone H4, anti-Ac-α-tubulin, anti-Bax, anti-Bcl2, anti-H2AX (S139ph), anti-CDK1, anti-cyclin B, and anti-β-actin antibodies (Cell Signaling Technology, MA, United States) detected the target proteins after membranes were blocked with 5% fat-free milk. The peroxidase-conjugated secondary antibodies detected the bound antibodies for 1 h and visualized according to improved chemiluminescent reagent.
. Values (mean ± SD) were obtained from three separate experiments. *p < 0.01 vs. control.

Huh7 = experiment: MTT antiproliferative assay, Huh7; format: cell-based; conditions: Homo sapiens, Huh-7, 72 h, mean ± SD of three experiments, read-out: In vitro antiproliferative activity (IC50) Huh7
Method: (§3) Briefly, appropriate cells (1 × 10^4 cells/mL) were placed into 96-well plates in 100 μL of DMEM medium overnight. Then adding 100 μL of evaluated compounds into individual well for 72 h while 0.1% DMSO aqueous solution was treated as the negative control. After incubation with 30 μl MTT (5 mg/mL) for 4 h in all well, and ELISA plate reader measured absorbance of each well at 570 nm. Then calculating cytotoxicity effect of evaluated compounds through the formula: Cell inhibitory percentage (%) = (1−OD of treatment group/OD of control) × 100%.

recombinant human HDAC3 = target: T2, recombinant human HDAC3 (Homo sapiens, UniProt O15379); experiment: HDAC fluorimetric assay, HDAC3; format: biochemical; conditions: mean ± SD of three experiments
T2 construct: purchased Enzo Life Sciences Inc
T2 sequence (O15379 whole entry): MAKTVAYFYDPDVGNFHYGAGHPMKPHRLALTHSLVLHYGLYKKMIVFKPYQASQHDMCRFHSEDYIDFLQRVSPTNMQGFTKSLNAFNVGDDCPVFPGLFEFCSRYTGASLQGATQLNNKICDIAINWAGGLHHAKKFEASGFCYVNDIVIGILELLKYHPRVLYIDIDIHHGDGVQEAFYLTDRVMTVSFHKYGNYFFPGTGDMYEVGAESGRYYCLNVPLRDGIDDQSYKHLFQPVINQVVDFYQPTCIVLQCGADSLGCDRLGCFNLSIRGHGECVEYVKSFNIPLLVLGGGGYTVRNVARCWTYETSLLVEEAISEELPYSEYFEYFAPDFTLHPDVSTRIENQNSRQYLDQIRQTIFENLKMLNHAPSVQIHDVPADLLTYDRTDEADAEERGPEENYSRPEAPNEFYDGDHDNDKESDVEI
T2 sequence (O75376 395-489 partner limits assumed): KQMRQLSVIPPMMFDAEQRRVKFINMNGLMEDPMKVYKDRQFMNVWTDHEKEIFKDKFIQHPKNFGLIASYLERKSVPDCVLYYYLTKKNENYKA
Method: as §1

[2] = test system: Ac-histone H3, Ac-histone H4, Ac-α-tubulin in Bel7402/5-FU cells; experiment: Western blotting of acetylated histone H3, H4 and α-tubulin; format: cell-based, human; conditions: 2.0 and 5.0 μM, 72 h
Method: as §2
The data (mean ± SD) were obtained from three independent assays. *p < 0.01 vs. control.

Bel7402/5-FU cells [3] = experiment: Cell cycle analysis by flow cytometry; format: cell-based, human; conditions: 2.0 and 5.0 μM, 72 h
Method: The collected cells were ﬁxed in 70% ethanol at 4°C overnight, and then incubated with RNase A and using PI (Sigma-Aldrich) to stain. Flow cytometry evaluated the percent of Deoxyribonucleic acid (DNA) on ﬂow cytometer (Beckman Coulter). The ModFit LT (Verity, Software House, Topsham, ME, United States) analyzed distribution of cell cycles.
FIGURE 9 CHC caused G2/M arrest in Bel7402/5-FU cells (A) Bel7402/5-FU cells were treated with CHC at different concentrations (0, 2.0, and 5.0 μM) for 72 h; (B) Quantification of cell distribution per phase. Values (mean ± SD) were obtained from three separate experiments. *p < 0.01 vs. control.

HCT116 = experiment: MTT antiproliferative assay, HCT116; format: cell-based; conditions: Homo sapiens, HCT-116, 72 h, mean ± SD of three experiments, read-out: In vitro antiproliferative activity (IC50) HCT116
Method: as §3

[4] = test system: H2AX (S139ph) in Bel7402/5-FU cells; experiment: Western blotting of DNA damage marker H2AX; format: cell-based, human; conditions: 72 h
Method: as §2
[…]; (B) The relative expression levels of H2AX protein were quantitatively analyzed using an internal reference β-actin, and the data (mean ± SD) were from three separate experiments. *p < 0.01 vs. control.

Bel7402/5-FU cells [5] = experiment: Cell apoptosis analysis by flow cytometry; format: cell-based, human; conditions: 72 h
Method: Briefly, Bel7402/5-FU cells were cultured in DMEM at 37°C with 5% CO2 for 12 h. […] Then Bel7402/5-FU cells were collected and using APC-Annexin V and 7-AAD to stain these cells under the condition of 37°C for 15 min. Flow cytometry analysis (Calibur, BD, United States) decide the percentage of apoptotic cells according to APC signal (FL4) (excitation wavelength at 633 nm; emission wavelength at 660 nm) and 7-AAD staining signal (FL3) (excitation wavelength at 488 nm; emission wavelength at 647 nm). WinList 3D (7.1) analyzed the data and Excel 2016 plotted the histogram.
FIGURE 5 CHC causes apoptosis of Bel7402/5-FU cells. […] The data (mean ± SD, percentage of apoptotic cells) represent the average of three separate experiments. *p < 0.01 vs. control.

CN(C)c1ccc(-c2nc(C(=O)NCc3ccc(/C=C/C(=O)NO)cc3)cc3c2[nH]c2ccccc23)cc1 [CHC, (E)-N-(4-(3-(hydroxyamino)-3-oxoprop-1-en-1-yl)benzyl)-1-(4-dimethylaminophenyl)-9H-pyrido [3,4-b]indole-3-carboxamide]
cytotoxicity on normal liver LO2 cells growth (LO2 cells): minimal cytotoxicity effects
IC50 (recombinant human HDAC8): > 1000 nM
expression of cyclin B and CDK1 [1]: downregulated the expression of cyclin B and CDK1
IC50 (Huh7): 2890 ± 320 nM
IC50 (recombinant human HDAC3): 134 ± 16 nM
acetylation of H3, H4 and α-tubulin [2]: promoted the acetylation of H3, H4, and α-tubulin with increasing dose
cell cycle arrest (Bel7402/5-FU cells [3]): significantly induced cell cycle arrest at the G2/M phase in a dose-dependent manner
IC50 (HCT116): 2050 ± 190 nM
expression of phosphorylated H2AX [4]: induced the expression of phosphorylated H2AX in Bel7402/5-FU cells in a dosage-dependent manner
rate of Annexin V+ Bel7402/5-FU cellular apoptosis (Bel7402/5-FU cells [5]; 2.0 μM): 42.3%
rate of Annexin V+ Bel7402/5-FU cellular apoptosis (Bel7402/5-FU cells [5]; 5.0 μM): 67.2%
